We go through 26 compounds from US8053447B2, “11β-hydroxysteroid dehydrogenase type 1 active compounds” (High Point Pharmaceuticals, LLC, priority 2006, dated 2011).

pIC50: −log10 of the molar value.

In this experiment the target is T1, h-11βHSD1 (Homo sapiens, UniProt P28845).
T1 construct: made in house
T1 sequence (P28845 whole entry): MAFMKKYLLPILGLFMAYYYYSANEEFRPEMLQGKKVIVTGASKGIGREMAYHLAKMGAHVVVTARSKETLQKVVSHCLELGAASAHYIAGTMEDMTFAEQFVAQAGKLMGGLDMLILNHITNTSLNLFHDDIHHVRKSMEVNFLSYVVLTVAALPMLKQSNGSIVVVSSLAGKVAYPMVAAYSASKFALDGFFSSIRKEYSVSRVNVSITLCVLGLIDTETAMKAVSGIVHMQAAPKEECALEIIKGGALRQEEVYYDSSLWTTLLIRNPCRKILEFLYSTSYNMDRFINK
Nature of the experiment: 11βHSD1 enzyme assay (scintillation proximity assay, 3H-cortisone to 3H-cortisol). To be noted: extract of yeast transformed with h-11βHSD1; 120 nM 3H-cortisone, 4 mM β-NADPH, 60 min at 30° C., SPA. In kind it is biochemical. Here is the method:
Pharmacological Methods 11βHSD1 Enzyme Assay Materials
^3H-cortisone and anti-rabbit Ig coated scintillation proximity assay (SPA) beads were purchased from Amersham Pharmacia Biotech, β-NADPH was from Sigma and rabbit anti-cortisol antibodies were from Fitzgerald. An extract of yeast transformed with h-11βHSD1 (Hult et al., FEBS Lett, 441, 25 (1998)) was used as the source of enzyme. The test compounds were dissolved in DMSO (10 mM). All dilutions were performed in a buffer containing 50 mM TRIS-HCl (Sigma Chemical Co), 4 mM EDTA (Sigma Chemical Co), 0.1% BSA (Sigma Chemical Co), 0.01% Tween-20 (Sigma Chemical Co) and 0.005% bacitracin (Novo Nordisk A/S), pH=7.4. Optiplate 96 wells plates were supplied by Packard. The amount of ^3H-cortisol bound to the SPA beads was measured on TopCount NXT, Packard.
h-11βHSD1, 120 nM ^3H-cortisone, 4 mM β-NADPH, antibody (1:200), serial dilutions of test compound and SPA particles (2 mg/well) were added to the wells. The reaction was initiated by mixing the different components and was allowed to proceed under shaking for 60 min at 30° C. The reaction was stopped be the addition of 10 fold excess of a stopping buffer containing 500 μM carbenoxolone and 1 μM cortisone. Data was analysed using GraphPad Prism software.
Turning to `O=C(NC1C2CC3CC(C2)CC1C3)c1ccc(OC2CCC(NC(=O)C3CC3)CC2)cc1` (mixture of isomers) [Example 2c, cis/trans-4-[4-(Cyclopropanecarbonyl-amino)-cyclohexyl-oxy]-N-adamantan-2-yl-benzamide], the pIC50 was 6.93.
Turning to `O=C(NC1C2CC3CC(C2)CC1C3)c1ccc(OC2CCC(C(=O)O)CC2)cc1` (mixture of isomers) [Example 4a, Cis/trans 4-[4-adamantan-2-ylcarbamoyl)-phenoxy]-cyclohexanecarboxylic acid], the pIC50 was 6.17.
Consider `CC(C)(C)OC(=O)N1C[C@@H]2CC1CN2c1ccc(C(=O)N2CC3CCC(CC3)C2)cc1` (stereo in doubt) [Example 1h, (1S,4S)-5-[4-(3-Aza-bicyclo[3.2.2]nonane-3-carbonyl)-phenyl]-2,5-diaza-bicyclo[2.2.1]heptane-2-carboxylic acid tert-butyl ester], for which the pIC50 is 6.41.
Compound `CCOC(=O)C1CCC(Oc2ccc(C(=O)N3CC4(C)CC3CC(C)(C)C4)cc2)CC1` (centres unmarked) [Example 1a, 4-[4-(1,3,3-Trimethyl-6-aza-bicyclo[3.2.1]octane-6-carbonyl)-phenoxy]-cyclo-hexanecarboxylic acid ethyl ester] showed a pIC50 of 6.89.
As for `O=C(NC1C2CC3CC(C2)CC1C3)c1ccc(OC2CCN(C(=O)C3CC3)CC2)cc1` (centres unmarked) [Example 1b, 4-(1-Cyclopropanecarbonyl-piperidin-4-yloxy)-N-ada-mantan-2-yl-benzamide], the pIC50 was 6.69.
The compound `O=C(NC1C2CC3CC(C2)CC1C3)c1ccc(OC2CCC(O)CC2)cc1` (centres unmarked) [Example 1d, N-Adamantan-2-yl-4-(4-hydroxy-cyclohexyloxy)-benzamide] gave a pIC50 of 7.12.
As for `Cc1c[nH]c(SCC2CCC(Oc3ccc(C(=O)NC4C5CC6CC(C5)CC4C6)cc3)CC2)n1` (centres unmarked) [Example 1e, N-Adamantan-2-yl-4-[4-(4-methyl-1H-imidazol-2-yl-sulfanylmethyl)-cyclo-hexyloxy]-benzamide], the pIC50 is 6.72.
Regarding `O=C(NC1C2CC3CC(C2)CC1C3)c1ccc(OCC2CCC(O)CC2)cc1` (centres unmarked) [Example 1f, 4-(4-Hydroxy-cyclohexyl-methoxy)-N-adamantan-2-yl-benzamide], the negative-log IC50 (pIC50) was 6.33.
On to `O=C(O)C1CCC(Oc2ccc(C(=O)N3CC4CCC(CC4)C3)cc2)CC1` (centres unmarked) [Example 2a, 4-[4-(3-Aza-bicyclo[3.2.2]-nonane-3-carbonyl)-phen-oxy]-cyclohexane carbox-ylic acid], for which the pIC50 is 5.84.
Compound `CC(C)CC(=O)N1CCC(Oc2ccc(C(=O)NC3C4CC5CC(C4)CC3C5)cc2)CC1` (centres unmarked) [Example 2b, 4-[1-(3-Methyl-butyryl)-piperidin-4-yloxy]-N-ada-mantan-2-yl-benzamide] had a pIC50 of 6.55.
On to `O=C(NC1C2CC3CC(C2)CC1C3)c1ccc(OC2CCC(On3cccn3)CC2)cc1` (centres unmarked) [Example 2d, 4-[4-(Pyrazol-1-yloxy)-cyclohexyloxy]-N-adaman-tan-2-yl-benzamide], for which the pIC50 is 6.74.
In turn, `O=C(NC1C2CC3CC(C2)CC1C3)c1ccc(OC2CCC(COn3cccn3)CC2)cc1` (centres unmarked) [Example 2e, 4-[4-(Pyrazol-1-yl-oxy-methyl)-cyclohexyloxy]-N-adamantan-2-yl-benzamide] had a pIC50 of 6.72.
For `Cn1cnc(S(=O)(=O)N2CCC(COc3ccc(C(=O)N4CCCC5CCCCC54)cc3)CC2)c1` (centres unmarked) [Example 2f, {4-[1-(1-Methyl-1H-imidazole-4-sulfonyl)-piperidin-4-yl-methoxy]-phenyl}-(octahydro-quinolin-1-yl)-methanone], the pIC50 was 6.87.
For the compound `O=C(c1ccc(N2[C@@H]3CC[C@H]2CC(Oc2ccccn2)C3)cc1)N1CCCC2CCCCC21` (stereo partly drawn) [Example 2h, (Octahydro-quinolin-1-yl)-{4-[(1S,5R)-3-(pyridin-2-yloxy)-8-aza-bicyclo[3.2.1]oct-8-yl]-phenyl}-methanone], the pIC50 is 6.44.
As for `O=C(O)C1CCC(Oc2ccc(C(=O)N3CCCC4CCCCC43)cc2)CC1` (centres unmarked) [Example 3a, 4-[4-(Octahydro-quinoline-1-carbonyl)-phenoxy]-cyclohexanecarboxylic acid], the pIC50 was 6.39.
In turn, `CC(C)CC(=O)N1CCC(Oc2ccc(C(=O)N3CC4CCC(CC4)C3)cc2)CC1` [Example 3b, 1-{4-[4-(3-Aza-bicyclo-[3.2.2]nonane-3-carbonyl)-phenoxy]-piperidin-1-yl}-3-methyl-butan-1-one] had a pIC50 of 5.85.
With `O=C(NC1C2CC3CC(C2)CC1C3)c1ccc(O[C@H]2CC[C@@H](NS(=O)(=O)c3ccccn3)CC2)cc1` (stereo partly drawn) [Example 3c, Cis-N-Adamantan-2-yl-4-[4-(pyridine-2-sulfonylamino)-cyclohexyloxy]-benzamide], the pIC50 was 7.02.
In turn, `O=C(O)c1ccc(OCC2CCC(Oc3ccc(C(=O)NC4C5CC6CC(C5)CC4C6)cc3)CC2)cc1` (centres unmarked) [Example 3e, 4-{4-[4-(Adamantan-2-yl-carbamoyl)-phenoxy]-cyclo-hexylmethoxy}-benzoic acid] had a pIC50 of 6.52.
For `CCS(=O)(=O)N1CCC(COc2ccc(C(=O)N3CCCC4CCCCC43)cc2)CC1` (centres unmarked) [Example 3f, [4-(1-Ethanesulfonyl-piperidin-4-yl-methoxy)-phenyl]-(octahydro-quinolin-1-yl)-methanone], the pIC50 is 6.57.
As to `Cc1ccc(S(=O)(=O)NC(=O)N2CCC(Oc3ccc(C(=O)N4CC5CCC(CC5)C4)cc3)C2)cc1` (centres unmarked) [Example 3g, N-{3-[4-(3-Aza-bicyclo-[3.2.2]nonane-3-carbonyl)-phenoxy]-pyrrolidine-1-carbonyl}-4-methyl-benzenesulfonamide], the pIC50 is 5.55.
As to `O=C(NC1C2CC3CC(C2)CC1C3)c1ccc(N2[C@@H]3CC[C@H]2CC(Oc2ccccn2)C3)cc1` (stereo partly drawn) [Example 3h, 4-[(1S,5R)-3-(Pyridin-2-yloxy)-8-aza-bicyclo[3.2.1]oct-8-yl]-N-adamantan-2-yl-benzamide], the pIC50 was 6.01.
Compound `O=C(C1CC1)N1CCC(Oc2ccc(C(=O)N3CC4CCCC3C4)cc2)CC1` (centres unmarked) [Example 4b, (6-Aza-bicyclo[3.2.1]oct-6-yl)-[4-(1-cyclopropane-carbonyl-piperidin-4-yloxy)-phenyl]-methanone] had a pIC50 of 5.64.
Regarding `O=C(c1ccc(O[C@H]2CC[C@@H](NS(=O)(=O)c3ccccn3)CC2)cc1)N1CCCC2CCCCC21` (stereo partly drawn) [Example 4c, Cis-Pyridine-2-sulfonic acid {4-[4-(octahydro-quinoline-1-carbonyl)-phenoxy]-cyclo-hexyl}-amide], the pIC50 was 7.29.
As to `C=CCOC(=O)c1ccc(OCC2CCC(Oc3ccc(C(=O)NC4C5CC6CC(C5)CC4C6)cc3)CC2)cc1` (centres unmarked) [Example 4e, 4-{4-[4-(Adamantan-2-yl-carbamoyl)-phenoxy]-cyclo-hexylmethoxy}-benzoic acid allyl ester], the pIC50 is 6.32.
On to `CN(C(=O)c1ccc(OCC2CCN(S(=O)(=O)c3ccccn3)CC2)cc1)C1C2CC3CC1CC(O)(C3)C2` (centres unmarked) [Example 4f, N-(5-Hydroxy-adamantan-2-yl)-N-methyl-4-[1-(pyridine-2-sulfonyl)-piperidin-4-yl-methoxy]-benzamide], for which the pIC50 was 5.87.
Next, `CC1(C)CC2CC(C)(CN2C(=O)c2ccc(O[C@H]3CC[C@@H](C(=O)O)CC3)cc2)C1` (stereo partly drawn) [Example 5a, Cis-4-[4-(1,3,3-trimethyl-6-aza-bicyclo [3.2.1]octane-6-carbonyl)-phenoxy]-cyclo-hexanecarboxylic acid]: 6.23.
